Results published in patent US9382306B2, “Octapeptide compounds derived from somatostatin and the therapeutic use thereof” (IPSEN PHARMA S.A.S., priority 2008, dated 2016).
Bridge positions count the residues as written; N and C are the ends. Square brackets hold non-standard residues; d marks the D form. Peptide text beside a SMILES is read from it. ξ: configuration not given here. d2Nal = N[C@H](Cc1ccc2ccccc2c1)C(=O)O; Thr(3ξ) = CC(O)[C@H](N)C(=O)O

Assays:
[1] = target: T1, somatostatin receptors sub-type 5 (Homo sapiens, UniProt P35346); experiment: Affinity for somatostatin receptors: inhibition of [125I-Tyr11]SRIF-14 binding to membranes of transfected CHO-K1 cells; settings: competitive inhibition of [125I-Tyr11]SRIF-14 binding, 37° C.
T1 construct: expressed in transfected cells; membrane preparations
T1 sequence (P35346 whole entry): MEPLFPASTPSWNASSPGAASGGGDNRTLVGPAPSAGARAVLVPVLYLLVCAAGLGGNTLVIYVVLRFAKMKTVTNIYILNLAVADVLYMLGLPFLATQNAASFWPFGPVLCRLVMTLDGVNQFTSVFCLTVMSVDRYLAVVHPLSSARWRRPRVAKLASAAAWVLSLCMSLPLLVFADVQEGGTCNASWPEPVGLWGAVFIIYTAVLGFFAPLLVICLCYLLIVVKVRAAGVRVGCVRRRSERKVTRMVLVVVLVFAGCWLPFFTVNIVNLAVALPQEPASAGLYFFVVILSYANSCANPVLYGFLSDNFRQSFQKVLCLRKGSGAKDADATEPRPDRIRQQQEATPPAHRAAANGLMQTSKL

[2] = Static release test in PBS; type: physicochemical; settings: 75 mM starting concentration, PBS pH 7.4, 37° C., % of free compound
Experimental: Release studies can be carried out on the octapeptide compounds according to the invention in the form of gel, solid, or in suspension. Two types of tests can be envisaged: static release tests and/or dynamic tests, both are briefly described hereafter.
The experimental parameters are common to both types of tests. The release medium is a liquid medium which is physico-chemically well-controlled, preferably a PBS (phosphate buffer saline) buffer adjusted to pH 7.4 and maintained at 37° C. The release curve is defined as the concentration of the studied compound in the dissolution medium (expressed in % of free compound) as a function of time (minutes, hours, days). To initiate the tests, a know quantity of sample is placed in the dissolution medium at time 0 (t=0 min/h/d), the sample being optionally conditioned in a device which is suited to its initial physical state (gel, solid, suspension). Measurements of the concentration of the compound in the release medium are carried out by one or more analytical methods which are well known in the state of the art such as UV-visible spectrophotometry or the HPLC (High Performance Liquid Chromatography). The parameters of the analytical methods are adjusted as a function of the physico-chemical characteristics of the compounds. […]

Row | Ki [1] [µM] | Static release after 48 h [2] [%] | Compound
1 | ≤ 0.1 | 25 | CC(C)[C@@H]1NC(=O)[C@H](CCCCN)NC(=O)[C@@H](Cc2cccc3ccccc23)NC(=O)[C@H](Cc2ccc(O)cc2)NC(=O)[C@@H](NC(=O)[C@H](N)Cc2ccc3ccccc3c2)CSSC[C@@H](C(=O)N[C@H](C(N)=O)C(C)O)NC1=O (stereo partly drawn) [Example 6, H-D-2-Nal^1-cyclo(Cys^2Tyr^3-13-(1-naphthyl)-D-Ala^4-Lys^5-Val^6-Cys^7)-Thr^8-NH2.2 CH3COOH]
2 |  | 85 | CC(C)[C@@H]1NC(=O)[C@H](CCCCN)NC(=O)[C@@H](C)NC(=O)[C@H](Cc2ccc(O)cc2)NC(=O)[C@@H](NC(=O)[C@H](N)Cc2ccc3ccccc3c2)CSSC[C@@H](C(=O)N[C@H](C(N)=O)C(C)O)NC1=O (stereo partly drawn) [Example 4, H-D-2-Nal^1-cyclo(Cys^2Tyr^3-D-Ala^4-Lys^5-Val^6Cys^7)-Thr^8-NH2.2 CH3COOH] (H-[d2Nal]CY[dA]KVC[Thr(3ξ)]-NH2; disulfide 2-7)
3 | ≤ 5 |  | CC(C)[C@@H]1NC(=O)[C@H](CCCCN)NC(=O)[C@@H](Cc2c[nH]cn2)NC(=O)[C@H](Cc2ccc(O)cc2)NC(=O)[C@@H](NC(=O)[C@H](N)Cc2ccc3ccccc3c2)CSSC[C@@H](C(=O)N[C@H](C(N)=O)C(C)O)NC1=O (stereo partly drawn) [Example 3, H-D-2-Nal^1-cyclo(Cys^2-Tyr^3-D-His^4-Lys^5-Val^6-Cys^7)-Thr^8-NH2.2 CH3COOH] (H-[d2Nal]CY[dH]KVC[Thr(3ξ)]-NH2; disulfide 2-7)
